Source: PubChem BioAssay (NCI)
“And” between values parts separate entries of the source, which are not always exact repeats. Equal values may be shown once.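 96-well plates; 48 h exposure; 5 concentrations. Endpoints by linear interpolation between flanking doses. Not reached: highest tested concentration assigned. The concentration for 50% growth inhibition is given as GI50. TGI: concentration producing complete growth inhibition.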

How the values were obtained:
Assay in all cases: growth of human tumour cells (NCI), 48 h
M14 melanoma = test system: M14 melanoma
MALME-3M melanoma = test system: MALME-3M melanoma
A498 renal = test system: A498 renal
HL-60(TB) leukemia = test system: HL-60(TB) leukemia
SK-MEL-28 melanoma = test system: SK-MEL-28 melanoma
T-47D breast = test system: T-47D breast
KM12 colon = test system: KM12 colon
SR leukemia = test system: SR leukemia
OVCAR-8 ovarian = test system: OVCAR-8 ovarian
UACC-62 melanoma = test system: UACC-62 melanoma

Row | SMILES | TGI (M14 melanoma) | TGI (MALME-3M melanoma) | TGI (A498 renal) | TGI (HL-60(TB) leukemia) | TGI (SK-MEL-28 melanoma) | TGI (T-47D breast) | TGI (KM12 colon) | TGI (SR leukemia) | TGI (OVCAR-8 ovarian) | TGI (UACC-62 melanoma) | GI50 (M14 melanoma) | GI50 (A498 renal) | GI50 (HL-60(TB) leukemia) | GI50 (SK-MEL-28 melanoma) | GI50 (T-47D breast) | GI50 (KM12 colon) | GI50 (SR leukemia) | GI50 (OVCAR-8 ovarian) | GI50 (UACC-62 melanoma) | GI50 (MALME-3M melanoma)
1 | O=C1NC(=O)C2=C1CCC2O (configuration not stated) | > 100 µM | > 100 µM | > 100 µM | > 100 µM | > 100 µM | > 100 µM | > 100 µM | > 100 µM | > 100 µM | > 100 µM | – | – | – | – | – | – | – | – | – | –
2 | COC(=O)C1Cc2c(n(C)c3ccccc23)C(c2ccccc2)N1 (configuration not stated) | > 100 µM | > 100 µM | > 100 µM | 48 µM | > 100 µM | – | > 100 µM | > 100 µM | > 100 µM | > 100 µM | – | – | – | – | – | – | – | – | – | –
3 | CCOC(=O)c1sc2ncn(Cc3cccc(Cl)c3)c(=O)c2c1C | 28.7 µM | – | 30.7 µM | 31.9 µM | 30.4 µM | 29 µM | 37.9 µM | 12.7 µM | 28.4 µM | 26.8 µM | 15.4 µM | 15.9 µM | 18 µM | 16.8 µM | 15.6 µM | 13.7 µM | 3.33 µM | 15.1 µM | 13.4 µM | –
4 | Cc1cc(S(=O)(=O)Nc2nnc(-c3ccco3)c(-c3ccco3)n2)c(SCc2ccccc2)cc1Cl | 55.5 µM | 43.9 µM | – | 83.1 µM | 40.5 µM | 48.6 µM | > 100 µM | 40 µM | 71.1 µM | 37.2 µM | 25.8 µM | – | 24.8 µM | 20.7 µM | 25.2 µM | 27.8 µM | 19.4 µM | 26.6 µM | 19.4 µM | 19.8 µM
5 | CN(C)CCCNC(=O)c1cc(NC(=O)c2cc(NC(=O)CCCN3c4ccccc4C=Cc4ccccc43)cn2C)cn1C | > 100 µM | – | 53.3 µM | 41.4 µM | – | > 100 µM | 10.8 µM | – | 72.2 µM | – | 2.97 µM | 22.4 µM | 14.3 µM | – | 17.1 µM | 2.42 µM | – | 17.3 µM | – | –
6 | Nc1ccc(CCN2CCN(c3cccc(C(F)(F)F)c3)CC2)cc1 | > 100 µM | > 100 µM | > 100 µM | 41.8 µM | > 100 µM | – | > 100 µM | > 100 µM | > 100 µM | > 100 µM | – | – | – | – | – | – | – | – | – | –
7 | Cc1c2cc[n+](C)cc2c(C)c2c1[nH]c1ccc(OC(C)C)cc12 | 35 µM and 26.7 µM | 3.89 µM and 5.25 µM | > 46.8 µM | 11.2 µM and 39.9 µM | 12.4 µM and 17.3 µM | – | 13.3 µM and 11.4 µM | 10.5 µM and > 54.3 µM | 26 µM and 18.9 µM | 8.04 µM and 12.7 µM | – | – | – | – | – | – | 2.34 µM and 9.55 µM | 0.649 µM and 1.61 µM | – | –
8 | COc1cccc2c(Nc3ccc(C(=O)NCCNCCO)cc3)cc(-c3ccccc3)nc12 | 74.7 µM | 37.9 µM | > 100 µM | 99.2 µM | > 100 µM | 62 µM | > 100 µM | – | > 100 µM | > 100 µM | 26.9 µM | 62.5 µM | 26.6 µM | 35.2 µM | 23 µM | 33.2 µM | – | 42.2 µM | 62.4 µM | 21 µM
9 | CC(=O)C(C(=N)C#N)C(=O)Nc1ccccc1 (configuration not stated) | > 100 µM | > 100 µM | > 100 µM | – | > 100 µM | > 100 µM | > 100 µM | > 100 µM | > 100 µM | > 100 µM | – | – | – | – | – | – | – | – | – | –
10 | Cc1c(C(=O)N/N=C/c2ccc(O)cc2)nnn1-c1ccnc2c(C(F)(F)F)cccc12 | > 100 µM | – | > 100 µM | > 100 µM | > 100 µM | > 100 µM | > 100 µM | > 100 µM | > 100 µM | > 100 µM | > 100 µM | 36.6 µM | > 100 µM | > 100 µM | 92.5 µM | > 100 µM | 44.1 µM | 21.5 µM | > 100 µM | –
11 | N#C[C@]12CC3(CC[C@H]1CC1(C2)OCCO1)OCCO3 | > 100 µM | > 100 µM | > 100 µM | > 100 µM | > 100 µM | – | > 100 µM | > 100 µM | > 100 µM | > 100 µM | – | – | – | – | – | – | – | – | – | –
12 | CC1=C(C(=O)Nc2ccc(F)c(Cl)c2)C(c2cccc(O)c2)NC(=S)N1 (configuration not stated) | > 50 µM | – | 33.5 µM | > 50 µM | > 50 µM | > 50 µM | 35.8 µM | > 50 µM | > 50 µM | 36.6 µM | 14.7 µM | 9.45 µM | 25.8 µM | > 50 µM | > 50 µM | 10.8 µM | 16.4 µM | 28.5 µM | 11.9 µM | –
13 | O=C(CCl)Nc1ccccc1SCc1cc(Cl)cc2c1OCOC2 | 16.8 µM | 5.96 µM | 26.2 µM | 4.31 µM | 26.8 µM | 45.2 µM | 27.4 µM | – | 30.2 µM | 19.9 µM | 4.68 µM | 12.9 µM | 2.15 µM | 13.5 µM | 9.82 µM | 13.8 µM | – | 13 µM | 5.44 µM | 2.3 µM
14 | NCCCn1c2c(c3ccccc3c1=O)C(=O)c1cc3c(cc1-2)OCO3 | 1.51 µM | 6.64 µM | – | – | 9.37 µM | 3.66 µM | 2.82 µM | – | – | 0.62 µM | 0.118 µM | – | 0.117 µM | 2.23 µM | 0.407 µM | 0.311 µM | – | 0.173 µM | 0.0631 µM | 1.48 µM
15 | CS(=O)(=O)c1ccc(Oc2nccc(-c3c(-c4ccc(F)cc4)ncn3C3CCNCC3)n2)cc1 | > 25 µM | > 25 µM | > 25 µM | > 25 µM | > 25 µM | > 25 µM | > 25 µM | – | > 25 µM | > 25 µM | > 25 µM | > 25 µM | > 20.6 µM | > 25 µM | > 25 µM | > 25 µM | – | > 25 µM | > 25 µM | > 25 µM
16 | CC(C)SC1SCC2C(=O)N(C)C3(CC3C)C(=O)OCC(NC(=O)c3nc4ccccc4cc3O)C(=O)NC(C)C(=O)N(C)C1C(=O)N(C)C1(CC1C)C(=O)OCC(NC(=O)c1nc3ccccc3cc1O)C(=O)NC(C)C(=O)N2C (configuration not stated) | < 0.0001 µM | – | < 0.0001 µM | < 0.0001 µM | < 0.0001 µM | > 100 µM | < 0.0001 µM | < 0.0001 µM | – | < 0.0001 µM | – | – | – | – | – | – | – | – | – | –
